Measurements taken from US20230157952A1, “METHOD FOR IMPROVING THE STABILITY OF A PHARMACEUTICAL COMPOSITION COMPRISING A HIGH PENETRATION DRUG, AND THE PHARMACEUTICAL COMPOSITION OBTAINED THEREFROM” (Techfields Inc., priority 2020, published 2023).

Test: Effect of concentration on the stability of the solution (purity over time)
Settings: for Stability of common ester over the concentrations tested: 0.01% to 10% (or higher) in 50% ethanol at 25° C.; for Purity (%) at Day 3 / Purity (%) at Day 7 / Purity (%) at hr 0 / Purity (%) at hr 24 / Purity(%) at Day 14 / Purity(%) at Day 28 / Purity(%) at Day 21: 25° C.

SMILES: CCN(CC)CCOC(=O)CCCc1ccc(N(CCS(C)(=O)=O)CCS(C)(=O)=O)cc1.Cl [2-(diethylamino)ethyl 4-[bis(2-methylsulfonylethyl)amino]benzenebutyrate.HCl]
- Stability when the concentration is 0.1% or lower (in water at 25° C.): not stable

SMILES: CCOC(=O)c1ccccc1 [Ethyl benzoate, reference compound]
- Stability of common ester over the concentrations tested: very stable
- Purity (%) at Day 3 (0.01 wt % in 50% ethanol): 97.4%
- Purity (%) at Day 7 (0.01 wt % in 50% ethanol): 96.9%
- Purity (%) at hr 0 (0.01 wt % in 50% ethanol): 97.8%
- Purity (%) at hr 24 (0.01 wt % in 50% ethanol): 97.6%
- Purity(%) at Day 14 (0.01 wt % in 50% ethanol): 96.1%
- Purity(%) at Day 28 (0.01 wt % in 50% ethanol): 95.3%
- Purity (%) at Day 3 (0.1 wt % in 50% ethanol): 97.6%
- Purity (%) at Day 7 (0.1 wt % in 50% ethanol): 97.5%
- Purity (%) at hr 0 (0.1 wt % in 50% ethanol): 97.9%
- Purity (%) at hr 24 (0.1 wt % in 50% ethanol): 97.7%
- Purity(%) at Day 14 (0.1 wt % in 50% ethanol): 97.2%
- Purity(%) at Day 28 (0.1 wt % in 50% ethanol): 95.9%
- Purity (%) at Day 3 (1 wt % in 50% ethanol): 97.7%
- Purity (%) at Day 7 (1 wt % in 50% ethanol): 97.6%
- Purity (%) at hr 0 (1 wt % in 50% ethanol): 98.0%
- Purity (%) at hr 24 (1 wt % in 50% ethanol): 97.8%
- Purity(%) at Day 14 (1 wt % in 50% ethanol): 97.5%
- Purity(%) at Day 28 (1 wt % in 50% ethanol): 97.3%
- Purity (%) at Day 3 (3 wt % in 50% ethanol): 97.8%
- Purity (%) at Day 7 (3 wt % in 50% ethanol): 97.7%
- Purity (%) at hr 0 (3 wt % in 50% ethanol): 97.9%
- Purity (%) at hr 24 (3 wt % in 50% ethanol): 97.8%
- Purity(%) at Day 14 (3 wt % in 50% ethanol): 97.6%
- Purity(%) at Day 28 (3 wt % in 50% ethanol): 97.5%
- Purity (%) at Day 3 (5 wt % in 50% ethanol): 97.8%
- Purity (%) at Day 7 (5 wt % in 50% ethanol): 97.7%
- Purity (%) at hr 0 (5 wt % in 50% ethanol): 98.0%
- Purity (%) at hr 24 (5 wt % in 50% ethanol): 97.8%
- Purity(%) at Day 14 (5 wt % in 50% ethanol): 97.6%
- Purity(%) at Day 28 (5 wt % in 50% ethanol): 97.6%
- Purity (%) at Day 3 (10 wt % in 50% ethanol): 97.8%
- Purity (%) at Day 7 (10 wt % in 50% ethanol): 97.8%
- Purity (%) at hr 0 (10 wt % in 50% ethanol): 97.9%
- Purity (%) at hr 24 (10 wt % in 50% ethanol): 97.8%
- Purity(%) at Day 14 (10 wt % in 50% ethanol): 97.7%
- Purity(%) at Day 28 (10 wt % in 50% ethanol): 97.6%

SMILES: CC(C)OC(=O)C(N)Cc1ccccc1 (stereo not shown) [Isopropyl 2-amino-3-phenylpropanoate, reference compound]
- Stability of common ester over the concentrations tested: quite stable
- Purity (%) at Day 3 (0.01 wt % in 50% ethanol): 97.4%
- Purity (%) at Day 7 (0.01 wt % in 50% ethanol): 97.1%
- Purity (%) at hr 0 (0.01 wt % in 50% ethanol): 98.4%
- Purity (%) at hr 24 (0.01 wt % in 50% ethanol): 98.3%
- Purity(%) at Day 14 (0.01 wt % in 50% ethanol): 96.5%
- Purity(%) at Day 21 (0.01 wt % in 50% ethanol): 95.9%
- Purity(%) at Day 28 (0.01 wt % in 50% ethanol): 95.1%
- Purity (%) at Day 3 (0.1 wt % in 50% ethanol): 97.6%
- Purity (%) at Day 7 (0.1 wt % in 50% ethanol): 97.3%
- Purity (%) at hr 0 (0.1 wt % in 50% ethanol): 98.5%
- Purity (%) at hr 24 (0.1 wt % in 50% ethanol): 98.4%
- Purity(%) at Day 14 (0.1 wt % in 50% ethanol): 96.8%
- Purity(%) at Day 21 (0.1 wt % in 50% ethanol): 96.5%
- Purity(%) at Day 28 (0.1 wt % in 50% ethanol): 95.7%
- Purity (%) at Day 3 (1 wt % in 50% ethanol): 97.9%
- Purity (%) at Day 7 (1 wt % in 50% ethanol): 97.6%
- Purity (%) at hr 0 (1 wt % in 50% ethanol): 98.7%
- Purity (%) at hr 24 (1 wt % in 50% ethanol): 98.5%
- Purity(%) at Day 14 (1 wt % in 50% ethanol): 97.2%
- Purity(%) at Day 21 (1 wt % in 50% ethanol): 96.8%
- Purity(%) at Day 28 (1 wt % in 50% ethanol): 96.1%
- Purity (%) at Day 3 (3 wt % in 50% ethanol): 98.2%
- Purity (%) at Day 7 (3 wt % in 50% ethanol): 97.8%
- Purity (%) at hr 0 (3 wt % in 50% ethanol): 98.7%
- Purity (%) at hr 24 (3 wt % in 50% ethanol): 98.6%
- Purity(%) at Day 14 (3 wt % in 50% ethanol): 97.4%
- Purity(%) at Day 21 (3 wt % in 50% ethanol): 97.0%
- Purity(%) at Day 28 (3 wt % in 50% ethanol): 96.5%
- Purity (%) at Day 3 (5 wt % in 50% ethanol): 98.5%
- Purity (%) at Day 7 (5 wt % in 50% ethanol): 98.4%
- Purity (%) at hr 0 (5 wt % in 50% ethanol): 98.7%
- Purity (%) at hr 24 (5 wt % in 50% ethanol): 98.6%
- Purity(%) at Day 14 (5 wt % in 50% ethanol): 98.2%
- Purity(%) at Day 21 (5 wt % in 50% ethanol): 97.8%
- Purity(%) at Day 28 (5 wt % in 50% ethanol): 97.1%
- Purity (%) at Day 3 (10 wt % in 50% ethanol): 98.6%
- Purity (%) at Day 7 (10 wt % in 50% ethanol): 98.5%
- Purity (%) at hr 0 (10 wt % in 50% ethanol): 98.8%
- Purity (%) at hr 24 (10 wt % in 50% ethanol): 98.7%
- Purity(%) at Day 14 (10 wt % in 50% ethanol): 98.3%
- Purity(%) at Day 21 (10 wt % in 50% ethanol): 97.9%
- Purity(%) at Day 28 (10 wt % in 50% ethanol): 97.3%

SMILES: CC(C)OC(=O)c1ccccc1 [Isopropyl benzoate, reference compound]
- Stability of common ester over the concentrations tested: very stable
- Purity (%) at Day 3 (0.01 wt % in 50% ethanol): 98.1%
- Purity (%) at Day 7 (0.01 wt % in 50% ethanol): 98.3%
- Purity (%) at hr 0 (0.01 wt % in 50% ethanol): 98.4%
- Purity (%) at hr 24 (0.01 wt % in 50% ethanol): 98.3%
- Purity(%) at Day 14 (0.01 wt % in 50% ethanol): 98.2%
- Purity(%) at Day 28 (0.01 wt % in 50% ethanol): 98.2%
- Purity (%) at Day 3 (0.1 wt % in 50% ethanol): 98.4%
- Purity (%) at Day 7 (0.1 wt % in 50% ethanol): 98.4%
- Purity (%) at hr 0 (0.1 wt % in 50% ethanol): 98.4%
- Purity (%) at hr 24 (0.1 wt % in 50% ethanol): 98.5%
- Purity(%) at Day 14 (0.1 wt % in 50% ethanol): 98.3%
- Purity(%) at Day 28 (0.1 wt % in 50% ethanol): 98.3%
- Purity (%) at Day 3 (1 wt % in 50% ethanol): 98.5%
- Purity (%) at Day 7 (1 wt % in 50% ethanol): 98.4%
- Purity (%) at hr 0 (1 wt % in 50% ethanol): 98.5%
- Purity (%) at hr 24 (1 wt % in 50% ethanol): 98.4%
- Purity(%) at Day 14 (1 wt % in 50% ethanol): 98.3%
- Purity(%) at Day 28 (1 wt % in 50% ethanol): 98.3%
- Purity (%) at Day 3 (3 wt % in 50% ethanol): 98.4%
- Purity (%) at Day 7 (3 wt % in 50% ethanol): 98.4%
- Purity (%) at hr 0 (3 wt % in 50% ethanol): 98.4%
- Purity (%) at hr 24 (3 wt % in 50% ethanol): 98.6%
- Purity(%) at Day 14 (3 wt % in 50% ethanol): 98.4%
- Purity(%) at Day 28 (3 wt % in 50% ethanol): 98.4%
- Purity (%) at Day 3 (5 wt % in 50% ethanol): 98.7%
- Purity (%) at Day 7 (5 wt % in 50% ethanol): 98.4%
- Purity (%) at hr 0 (5 wt % in 50% ethanol): 98.5%
- Purity (%) at hr 24 (5 wt % in 50% ethanol): 98.4%
- Purity(%) at Day 14 (5 wt % in 50% ethanol): 98.4%
- Purity(%) at Day 28 (5 wt % in 50% ethanol): 98.4%
- Purity (%) at Day 3 (10 wt % in 50% ethanol): 98.4%
- Purity (%) at Day 7 (10 wt % in 50% ethanol): 98.4%
- Purity (%) at hr 0 (10 wt % in 50% ethanol): 98.5%
- Purity (%) at hr 24 (10 wt % in 50% ethanol): 98.8%
- Purity(%) at Day 14 (10 wt % in 50% ethanol): 98.4%
- Purity(%) at Day 28 (10 wt % in 50% ethanol): 98.4%
